Experiments:
BCR-NTRK2 BaF3 cells = molecular target: T1, BCR-NTRK2 BaF3 cells (Homo sapiens, UniProt Q16620); experiment: BaF3 BCR-NTRK2 cell proliferation assay (ATPlite); type: cell-based; conditions: read-out: Inhibition of Cell Proliferation IC50, BCR/BaF3 TrkB
T1 construct: fused on or other part: P11274 (Breakpoint cluster region protein)
Procedure, shortened: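 BaF3 lines were seeded at 10,000 cells/well in growth medium with 1 mg/mL G418 but no IL-3, and MV-4-11 cells at 25,000 cells/well; plates were left overnight at 37 °C. Compounds were added as an 8-point 1:3 series with a top concentration of 10 μM and incubated 3 days. IC50 was taken from ATPlite luminescence.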

CYP3A4(BQ) = CYP3A4(BQ) (Homo sapiens, UniProt P08684); experiment: CYP3A4(BQ) inhibition; type: in vitro ADME; conditions: CYP3A4, substrate BQ; read-out: Cyp IC50 3A4(BQ)
Chain of CYP3A4(BQ) (P08684 whole entry): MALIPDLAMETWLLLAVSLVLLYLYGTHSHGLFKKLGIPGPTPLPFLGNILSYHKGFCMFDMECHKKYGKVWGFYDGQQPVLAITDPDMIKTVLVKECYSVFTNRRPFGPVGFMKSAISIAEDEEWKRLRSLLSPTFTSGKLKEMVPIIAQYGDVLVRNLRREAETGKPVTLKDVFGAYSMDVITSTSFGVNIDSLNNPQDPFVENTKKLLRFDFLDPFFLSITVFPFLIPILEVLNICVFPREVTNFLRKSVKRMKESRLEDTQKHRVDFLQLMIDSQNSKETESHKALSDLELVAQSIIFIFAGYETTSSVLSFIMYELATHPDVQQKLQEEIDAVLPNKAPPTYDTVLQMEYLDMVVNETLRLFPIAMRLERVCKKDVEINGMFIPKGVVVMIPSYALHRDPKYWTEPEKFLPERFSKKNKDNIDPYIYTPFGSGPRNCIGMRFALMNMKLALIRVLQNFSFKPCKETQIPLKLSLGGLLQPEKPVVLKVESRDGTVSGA
Procedure, shortened: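 Inhibition of human CYP3A4 (BQ substrate) was measured by fluorescence, since blocking metabolism of a known substrate lowers the fluorescent product signal. Compounds dissolved in DMSO at 100 mM were diluted into acetonitrile and then into NADPH regeneration cofactor mix, serially diluted 1:1 across 10 points, and preincubated in 384 well plates for 10 minutes at 37° C.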

CYP1A2 = molecular target: T2, CYP1A2 (Homo sapiens, UniProt P05177); experiment: CYP1A2 inhibition (fluorescent substrate CEC); type: in vitro ADME; conditions: read-out: Cyp IC50 1A2
T2 sequence (P05177 1-516): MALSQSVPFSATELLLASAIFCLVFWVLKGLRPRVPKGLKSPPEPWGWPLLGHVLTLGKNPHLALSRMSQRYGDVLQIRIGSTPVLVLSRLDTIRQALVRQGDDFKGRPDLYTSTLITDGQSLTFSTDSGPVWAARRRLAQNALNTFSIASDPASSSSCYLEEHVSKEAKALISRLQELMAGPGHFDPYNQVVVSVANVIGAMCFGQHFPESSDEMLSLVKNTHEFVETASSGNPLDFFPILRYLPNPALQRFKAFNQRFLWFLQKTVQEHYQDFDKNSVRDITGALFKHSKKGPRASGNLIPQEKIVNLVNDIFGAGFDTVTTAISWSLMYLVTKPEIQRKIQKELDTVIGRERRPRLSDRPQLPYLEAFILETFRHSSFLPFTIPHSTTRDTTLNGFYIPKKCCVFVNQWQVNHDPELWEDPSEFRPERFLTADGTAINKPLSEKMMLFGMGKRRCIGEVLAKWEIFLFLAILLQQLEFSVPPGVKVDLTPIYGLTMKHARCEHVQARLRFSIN
Procedure, shortened: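 Inhibition is measured as the drop in fluorescent metabolite formation across a 10-point compound titration with NADPH regeneration at 37 °C. Incubation lasts 15 min for CYP1A2, 45 min for CYP2C9 and 30 min for CYP2C19 and CYP2D6.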

T1 sequence (Q16620 538-807): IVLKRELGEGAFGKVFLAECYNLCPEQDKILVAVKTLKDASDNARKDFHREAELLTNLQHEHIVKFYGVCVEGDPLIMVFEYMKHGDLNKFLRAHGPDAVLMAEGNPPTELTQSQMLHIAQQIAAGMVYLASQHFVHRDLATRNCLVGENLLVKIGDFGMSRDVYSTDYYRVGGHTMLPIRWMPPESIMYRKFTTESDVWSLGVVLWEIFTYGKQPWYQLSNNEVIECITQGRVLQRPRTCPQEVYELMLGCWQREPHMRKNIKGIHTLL

Row | IC50 (BCR-NTRK2 BaF3 cells) | IC50 (CYP3A4(BQ)) | IC50 (CYP1A2) | SMILES
1 | < 0.01 µM | > 10 µM | > 10 µM | CCc1ccc(Nc2ccc(C(=O)c3c[nH]c4ncnc(NCC(C)C)c34)c(F)n2)cn1 [Compound P-4121, [6-[(6-ethyl-3-pyridyl)amino]-2-fluoro-3-pyridyl]-[4-(isobutylamino)-7H-pyrrolo[2,3-d]pyrimidin-5-yl]methanone]
2 | < 0.01 µM | > 10 µM | > 10 µM | CC(C)Nc1ncnc2[nH]cc(C(=O)c3ccc(NC4CCCCC4)nc3F)c12 [Compound P-4101, [6-(cyclohexylamino)-2-fluoro-3-pyridyl]-[4-(isopropylamino)-7H-pyrrolo[2,3-d]pyrimidin-5-yl]methanone]
3 | < 0.01 µM | > 10 µM | > 10 µM | O=C(c1ccc(Nc2ccc(C(F)(F)F)nc2)nc1F)c1c[nH]c2ncnc(NC3CC3)c12 [Compound P-4091, [4-(cyclopropylamino)-7H-pyrrolo[2,3-d]pyrimidin-5-yl]-[2-fluoro-6-[[6-(trifluoromethyl)-3-pyridyl]amino]-3-pyridyl]methanone]
4 | < 0.1 µM | > 10 µM | > 10 µM | O=C(c1ccc(NC2CCC(F)(F)CC2)nc1)c1c[nH]c2ncnc(NC3CC3)c12 [Compound P-4088, [4-(cyclopropylamino)-7H-pyrrolo[2,3-d]pyrimidin-5-yl]-[6-[(4,4-difluorocyclohexyl)amino]-3-pyridyl]methanone]
5 | < 0.01 µM | > 10 µM | > 10 µM | CCc1ccc(Nc2ccc(C(=O)c3c[nH]c4ncnc(NC5CC5)c34)c(F)n2)cn1 [Compound P-4125, [4-(cyclopropylamino)-7H-pyrrolo[2,3-d]pyrimidin-5-yl]-[6-[(6-ethyl-3-pyridyl)amino]-2-fluoro-3-pyridyl]methanone]
6 | < 0.01 µM | > 10 µM | > 10 µM | CCc1ccc(Nc2ccc(C(=O)c3c[nH]c4ncnc(NC5CCC5)c34)c(F)n2)cn1 [Compound P-4095, [4-(cyclobutylamino)-7H-pyrrolo[2,3-d]pyrimidin-5-yl]-[6-[(6-ethyl-3-pyridyl)amino]-2-fluoro-3-pyridyl]methanone]
7 | < 0.01 µM | > 10 µM | > 10 µM | COc1ccc(Nc2ccc(C(=O)c3c[nH]c4ncnc(NC5CCC(F)(F)CC5)c34)c(F)n2)cn1 [Compound P-4056, [4-[(4,4-difluorocyclohexyl)amino]-7H-pyrrolo[2,3-d]pyrimidin-5-yl]-[2-fluoro-6-[(6-methoxy-3-pyridyl)amino]-3-pyridyl]methanone]
8 | < 1 µM | > 10 µM | < 5 µM | CNc1ncnc2[nH]cc(C(=O)c3ccc(Nc4cncc(OC)c4)nc3F)c12 [Compound P-4108, [2-fluoro-6-[(5-methoxy-3-pyridyl)amino]-3-pyridyl]-[4-(methylamino)-7H-pyrrolo[2,3-d]pyrimidin-5-yl]methanone]
9 | < 1 µM | > 10 µM | > 10 µM | Fc1ccc(Nc2ncc(Cc3c[nH]c4ncc(Cl)cc34)cn2)cc1 [Compound P-3012, [5-(5-Chloro-1H-pyrrolo[2,3-b]pyridin-3-ylmethyl)-pyrimidin-2-yl]-(4-fluoro-phenyl)-amine]
10 | < 0.01 µM | > 10 µM | < 5 µM | CCc1ccc(Nc2ccc(C(=O)c3c[nH]c4ncnc(NCCCOC)c34)c(F)n2)cn1 [Compound P-4098, [6-[(6-ethyl-3-pyridyl)amino]-2-fluoro-3-pyridyl]-[4-(3-methoxypropylamino)-7H-pyrrolo[2,3-d]pyrimidin-5-yl]methanone]
11 | < 0.1 µM | > 10 µM | < 5 µM | COc1cncc(Nc2ccc(C(=O)c3c[nH]c4ncnc(NC(C)C)c34)c(F)n2)c1 [Compound P-4106, [2-fluoro-6-[(5-methoxy-3-pyridyl)amino]-3-pyridyl]-[4-(isopropylamino)-7H-pyrrolo[2,3-d]pyrimidin-5-yl]methanone]
12 | < 0.01 µM | > 10 µM | > 10 µM | O=C(c1ccc(Nc2ccc(C3CC3)nc2)nc1F)c1c[nH]c2ncnc(NC3CC3)c12 [Compound P-4093, [4-(cyclopropylamino)-7H-pyrrolo[2,3-d]pyrimidin-5-yl]-[6-[(6-cyclopropyl-3-pyridyl)amino]-2-fluoro-3-pyridyl]methanone]
13 | < 0.01 µM | > 10 µM | > 10 µM | O=C(c1ccc(NC2CCC(F)(F)CC2)nc1F)c1c[nH]c2ncnc(NC3CC3)c12 [Compound P-4062, [4-(cyclopropylamino)-7H-pyrrolo[2,3-d]pyrimidin-5-yl]-[6-[(4,4-difluorocyclohexyl)amino]-2-fluoro-3-pyridyl]methanone]
14 | < 0.01 µM | > 10 µM | > 10 µM | CCCNc1ncnc2[nH]cc(C(=O)c3ccc(Nc4ccc(CC)nc4)nc3F)c12 [Compound P-4122, [6-[(6-ethyl-3-pyridyl)amino]-2-fluoro-3-pyridyl]-[4-(propylamino)-7H-pyrrolo[2,3-d]pyrimidin-5-yl]methanone]
15 | < 0.1 µM | > 10 µM | < 5 µM | CCc1ccc(Nc2ccc(C(=O)c3c[nH]c4ncnc(N[C@@H](C)c5ccc(F)cc5)c34)c(F)n2)cn1 [Compound P-4097, [6-[(6-ethyl-3-pyridyl)amino]-2-fluoro-3-pyridyl]-[4-[[(1S)-1-(4-fluorophenyl)ethyl]amino]-7H-pyrrolo[2,3-d]pyrimidin-5-yl]methanone]
16 | < 0.1 µM | > 10 µM | > 10 µM | CCN1CCC(Nc2ncnc3[nH]cc(C(=O)c4ccc(Nc5ccc(OC)nc5)nc4F)c23)CC1 [Compound P-4074, [4-[(1-ethyl-4-piperidyl)amino]-7H-pyrrolo[2,3-d]pyrimidin-5-yl]-[2-fluoro-6-[(6-methoxy-3-pyridyl)amino]-3-pyridyl]methanone]
17 | < 0.01 µM | > 10 µM | < 5 µM | CCc1ccc(Nc2ccc(C(=O)c3c[nH]c4ncnc(NCC(F)(F)F)c34)c(F)n2)cn1 [Compound P-4120, [6-[(6-ethyl-3-pyridyl)amino]-2-fluoro-3-pyridyl]-[4-(2,2,2-trifluoroethylamino)-7H-pyrrolo[2,3-d]pyrimidin-5-yl]methanone]
18 | > 1 µM | > 10 µM | > 10 µM | O=C(c1ccc(NC2CCC(F)(F)CC2)nc1Cl)c1c[nH]c2ncnc(NCC(F)(F)F)c12 [Compound P-4057, [2-chloro-6-[(4,4-difluorocyclohexyl)amino]-3-pyridyl]-[4-(2,2,2-trifluoroethylamino)-7H-pyrrolo[2,3-d]pyrimidin-5-yl]methanone]
19 | < 0.01 µM | > 10 µM | > 10 µM | CCCCNc1ncnc2[nH]cc(C(=O)c3ccc(Nc4ccc(OC)nc4)nc3F)c12 [Compound P-4080, [4-(butylamino)-7H-pyrrolo[2,3-d]pyrimidin-5-yl]-[2-fluoro-6-[(6-methoxy-3-pyridyl)amino]-3-pyridyl]methanone]
20 | < 1 µM | > 10 µM | > 10 µM | Clc1ccc(Nc2ncc(Cc3c[nH]c4ncc(Cl)cc34)cn2)cc1 [Compound P-3011, (4-Chloro-phenyl)-[5-(5-chloro-1H-pyrrolo[2,3-b]pyridin-3-ylmethyl)-pyrimidin-2-yl]-amine]
21 | < 0.01 µM | > 10 µM | > 10 µM | CCc1ccc(Nc2ccc(C(=O)c3c[nH]c4ncnc(NC5CCOCC5)c34)c(F)n2)cn1 [Compound P-4116, [6-[(6-ethyl-3-pyridyl)amino]-2-fluoro-3-pyridyl]-[4-(tetrahydropyran-4-ylamino)-7H-pyrrolo[2,3-d]pyrimidin-5-yl]methanone]
22 | < 0.01 µM | > 10 µM | > 10 µM | O=C(c1ccc(Nc2ccc(C3CC3)nc2)nc1F)c1c[nH]c2ncnc(NCC(F)(F)F)c12 [Compound P-4090, [6-[(6-cyclopropyl-3-pyridyl)amino]-2-fluoro-3-pyridyl]-[4-(2,2,2-trifluoroethylamino)-7H-pyrrolo[2,3-d]pyrimidin-5-yl]methanone]
23 | < 0.1 µM | > 10 µM | < 5 µM | CNc1ncnc2[nH]cc(C(=O)c3ccc(Nc4ccc(C)nc4)nc3F)c12 [Compound P-4115, [2-fluoro-6-[(6-methyl-3-pyridyl)amino]-3-pyridyl]-[4-(methylamino)-7H-pyrrolo[2,3-d]pyrimidin-5-yl]methanone]

Source: patent US8901118B2, “Compounds and methods for kinase modulation, and indications therefor” (Plexxikon Inc., priority 2010, dated 2014)
